{"source": "patent US20080269162A1", "about": "“Novel Medicaments for Anti-Retroviral Treatments” (priority 2006, published 2008)", "tested_on": "NDK virus", "assay": "Number of syncitia in MT4 cell culture infected by NDK virus", "format": "cell-based, HIV", "set-up": "key to Number of Syncitia in the Culture (wells), J3 / Number of Syncitia in the Culture (wells), J4 / Number of Syncitia in the Culture (wells), J5 / Number of Syncitia in the Culture (wells), J6: the absence of syncitia is indicated by a minus (−) sign; the (+), +, ++, ++T signs indicate an increasing number of syncitia in each well; the (+), +, ++, ++T signs indicate an increasing number of syncitia in each well; the (+), +, ++, ++T signs indicate an increasing number of syncitia in each well; the (+), +, ++, ++T signs indicate an increasing number of syncitia in each well; The indication “T” indicates the death of the cells", "conditions": "for Number of Syncitia in the Culture (wells), J3: day 3; for Number of Syncitia in the Culture (wells), J4: day 4; for Number of Syncitia in the Culture (wells), J5: day 5; for Number of Syncitia in the Culture (wells), J6: day 6", "procedure": "Then infection of the cells was carried out by adding to each well, with the exception of those wells being used as control cells, 50 μL of previously titrated virus dilution.\nAfter an additional hour of incubation, the plate was centrifuged and the supernatant containing the residual virus was discarded.\nAfter 3 days of culture, the cells were diluted to half and the syncitia were observed using the inverse microscope from day 3 to day 7 after having been placed in suspension.\nIn the third case, the MT4 cell culture was preincubated for one hour at 37° C., then the cells were infected, the whole was subjected to incubation for one hour at 37° C., then to centrifugation with the elimination of the supernatant containing the virus that had not penetrated into the cells.\nIn each of the four types of experiments that have just been described, and as previously indicated, the cells were diluted to half after three days of culture and then the syncitia were observed using the inverted microscope from day 3 to day 7.\nIn the experiments described in greater detail hereinafter, the absence of syncitia is indicated by a minus (−) sign and the (+), +, ++, ++T signs indicate an increasing number of syncitia in each well.\nThe indication “T” indicates the death of the cells.", "key": {"[1]": {"conditions": "Continuous, before, during and after infection, 0.4 μm"}}}
{"substance": "3′-azidothymidine [AZT]", "values": [{"measurement": "Number of Syncitia in the Culture (wells), J3", "setting": "After infection, 0.4 μm", "value": "−"}, {"measurement": "Number of Syncitia in the Culture (wells), J4", "setting": "After infection, 0.4 μm", "value": "−"}, {"measurement": "Number of Syncitia in the Culture (wells), J5", "setting": "After infection, 0.4 μm", "value": "−"}, {"measurement": "Number of Syncitia in the Culture (wells), J6", "setting": "After infection", "value": "−"}, {"measurement": "Number of Syncitia in the Culture (wells), J3", "setting": "Before infection, 0.4 μg/mL", "value": "−"}, {"measurement": "Number of Syncitia in the Culture (wells), J4", "setting": "Before infection, 0.4 μg/mL", "value": "+ and −"}, {"measurement": "Number of Syncitia in the Culture (wells), J5", "setting": "Before infection, 0.4 μg/mL", "value": "++ and −"}, {"measurement": "Number of Syncitia in the Culture (wells), J6", "setting": "Before infection, 0.4 μg/mL", "value": "T and (+)"}, {"measurement": "Number of Syncitia in the Culture (wells), J3", "setting": "[1]", "value": "−"}, {"measurement": "Number of Syncitia in the Culture (wells), J4", "setting": "[1]", "value": "−"}, {"measurement": "Number of Syncitia in the Culture (wells), J5", "setting": "[1]", "value": "−"}, {"measurement": "Number of Syncitia in the Culture (wells), J6", "setting": "Continuous, before, during and after infection", "value": "−"}, {"measurement": "Number of Syncitia in the Culture (wells), J3", "setting": "During infection, 0.4 μm", "value": "−"}, {"measurement": "Number of Syncitia in the Culture (wells), J4", "setting": "During infection, 0.4 μm", "value": "−"}, {"measurement": "Number of Syncitia in the Culture (wells), J5", "setting": "During infection, 0.4 μm", "value": "−"}, {"measurement": "Number of Syncitia in the Culture (wells), J6", "setting": "During infection", "value": "−"}]}
